Laboratory results published in patent publication US8597901B2, “2,5-diketo-L-gluconic acid reductases and methods of use” (Danisco US Inc., priority 2000, dated 2013).
Like-named read-outs stand apart in the source and are kept apart here.

Key:
[1] = tested on: environmental 2,5-diketo-D-gluconic acid reductase DKGRc (pI-14, SEQ ID NO: 8) variant R238Q; test: Kinetic parameters of purified R238Q mutant of DKGRc; format: biochemical, environmental DNA (uncultured, soil)
Text: Site specific mutants of DKGRc were constructed by overlap extension PCR. […] The oligonucleotides:
were complementary to the antisense and sense strands, respectively, and introduced the changes K232Q and R238Q, respectively. The bases that differ from the native sequence are underlined. Each oligonucleotide was paired with the appropriate adapter primer (i.e. primers for amplifying the gene for insertion into expression vectors) in PCR's to generate fragments of the DKGRc gene that incorporated one of the two changes. Primers were also synthesized that matched the native DNA sequence. When used with the appropriate adapter primer, these generated an unmodified fragment of the gene. […] The amplification of the full-length genes was driven by addition of both adapter primers.

[2] = tested on: environmental 2,5-diketo-D-gluconic acid reductase (form not stated); conditions: read-out: apparent Km of stimulation by inorganic phosphate, NADH-dependent activity

In the case of NC(=O)C1=CN([C@@H]2O[C@H](COP(=O)(O)OP(=O)(O)OC[C@H]3O[C@@H](n4cnc5c(N)ncnc54)[C@H](OP(=O)(O)O)[C@@H]3O)[C@@H](O)[C@H]2O)C=CC1 [NADPH], the “Km for NADPH, increase over native” value ([1]; R238Q versus native DKGRc) is reported as 18 fold, the “kcat, increase over native” value ([1]; R238Q versus native DKGRc, NADPH) is reported as 3.5 fold and the Km ([1]; read-out: Km, nadph, R238Q, NADPH as cosubstrate) is reported as 55 µM.

O=P(O)(O)O [Pi] gave a Km [2] of 1300 µM.

With O=C(O)C(=O)[C@@H](O)[C@H](O)C(=O)CO [DKG, 2,5-diketo-D-gluconic acid] the “Km for 2,5-diketo-D-gluconic acid, increase over native” value ([1]; R238Q versus native DKGRc) was 7.7 fold and the Km ([1]; R238Q, read-out: Km for 2,5-diketo-D-gluconic acid) was 440 µM.

NC(=O)C1=CN([C@@H]2O[C@H](COP(=O)(O)OP(=O)(O)OC[C@H]3O[C@@H](n4cnc5c(N)ncnc54)[C@H](O)[C@@H]3O)[C@@H](O)[C@H]2O)C=CC1 [NADH] was tested, and the “Km for NADH, effect of mutation” value ([1]; R238Q versus native DKGRc) was “not affected by the mutation”, the “catalytic efficiency with NADH as cosubstrate, increase over native” value ([1]; R238Q versus native DKGRc) was 7 fold and the kcat ([1]; R238Q, NADH as cosubstrate) was 12 S^−1. It also gave a Km ([1]; R238Q, NADH as cosubstrate, read-out: Km, nadh) of 1900 µM.
